The record followed here is ChEMBL document CHEMBL1156829 (Proc Natl Acad Sci U S A, 2008).

The test system of series [1] is Plasmodium falciparum. The series can be described thus: NOVARTIS: Inhibition of Plasmodium falciparum 3D7 (drug-susceptible) proliferation in erythrocyte-based infection assay. Particulars: Plasmodium falciparum, 3D7. Type of series: functional, organism-based.
For series [2], the system named is Plasmodium falciparum. Briefly: NOVARTIS: Inhibition of Plasmodium falciparum W2 (drug-resistant) proliferation in erythrocyte-based infection assay. Type of series: functional, organism-based. The following applies: Plasmodium falciparum, W2; read-out: EC50.
Series [3] is described as follows: NOVARTIS: Cytotoxicity against human hepatocellular carcinoma cell line (Huh7). Particulars: Huh7 cells (hepatocellular carcinoma cell line). It is filed as toxicity, cell-based, Huh-7.

What is called EC50 is the midpoint of the concentration-response curve. A word on the CC50: it is the concentration giving 50% cytotoxicity. Read a high CC50 as better tolerance by the cells. Consider `COc1ccc2nc(-c3ccccc3)cc(O)c2c1`, for which the values for the EC50 with Plasmodium falciparum [1] and in the series with Plasmodium falciparum [2] were 0.411 µM and 0.314 µM, respectively. Besides, in series [3], half-maximal cytotoxicity (CC50) was put at 0.835 µM.
As to `CC[C@H]1CN2CCc3cc(OC)c(OC)cc3[C@@H]2C[C@@H]1C[C@@H]1NCCc2cc(OC)c(OC)cc21`, the EC50 in the series on Plasmodium falciparum [1] worked out at 0.0106 µM; with Plasmodium falciparum [2] it was 0.0231 µM. In series [3], the midpoint of cytotoxicity, the CC50, lay at 0.0822 µM.
The like results for `Cc1ccc(NC(C)c2nc3ccccc3c(=O)n2CCOC2CCCCO2)cc1C` (stereo not given) were, in that order, 0.799 µM, 1.03 µM and greater than 2.7 µM.
Take `O=C(Nc1ccc(-c2nc3cc(NC(=O)c4ccc(Br)o4)ccc3[nH]2)cc1)c1ccc(Br)o1`: the EC50 was found to be 0.294 µM with Plasmodium falciparum [1] and 0.709 µM with Plasmodium falciparum [2]. This compound came in with a CC50 in series [3] of 2.25 µM.
`COc1ccc2[nH]c3c(c2c1)CCNC3c1ccc(OC)c(CSc2nnc(-c3ccccc3)o2)c1` (stereo not given): the EC50 in the series with Plasmodium falciparum [1] turned out to be 4.05 µM; in the series with Plasmodium falciparum [2], 1.99 µM. Besides, the CC50 in series [3] amounted to 7.42 µM.
The like results for `OCCNCCNCc1ccc2[nH]c3ccccc3c2c1` were, in that order, 0.291 µM, 7.6 µM and 28.9 µM.
In the same order, the values of `CC(C)(C)c1ccc(C=CC(=O)NCc2ccco2)cc1` are 0.623 µM, 0.322 µM and 1.14 µM.
In the same order, the values of `CN(C)CCCNc1cc(-c2ccccc2)nc2ccccc12` are 0.123 µM, 5.15 µM and 18.6 µM.
For the compound `COc1cc(NC(C)CCCN(Cc2ccc(OC)c(OC)c2)C(=O)NC2CCCCC2)c2ncccc2c1` (stereo not given), the results for the EC50 in the series on Plasmodium falciparum [1] and in the series on Plasmodium falciparum [2] were 0.676 µM and 0.337 µM, respectively. Further, in series [3], it took 1.3 µM to reach half-maximal cytotoxicity (CC50).
As to `N#CN=C(N)c1sc(Nc2ccccc2)nc1N`, the EC50 with Plasmodium falciparum [1] amounted to 0.806 µM; with Plasmodium falciparum [2] it was 2.39 µM. Besides, in series [3], the midpoint of cytotoxicity, the CC50, lay at 9.37 µM.
In the same order, the values of `CC[n+]1c(/C=C/C=C2\N(C)c3ccccc3C2(C)C)n(-c2ccccc2)c2cc(Cl)ccc21` are 0.287 µM, 0.53 µM and 1.69 µM.
Consider `COc1ccccc1/C=C\CN(C(=O)c1ccc(C)cc1)C(c1ccccc1)c1ccccc1`, for which the 50% effective concentration (EC50) in the series on Plasmodium falciparum [1] is 1.12 µM; in the series with Plasmodium falciparum [2], greater than 1.35 µM. For the same compound, in series [3], the CC50 was greater than 4.36 µM.
For the compound `CCCCN(C)Cc1ccc2c(NC(=O)c3ccc(C)s3)c(C(=O)OC)sc2n1`, the EC50 was found to be 0.542 µM in the series with Plasmodium falciparum [1] and 0.461 µM in the series with Plasmodium falciparum [2]. In addition, it took 1.52 µM to reach half-maximal cytotoxicity in series [3] (CC50).
On to `CCOc1ccc(NC(=O)c2ccc(C)o2)cc1`, for which the concentration for a half-maximal effect (EC50) in the series on Plasmodium falciparum [1] came to 3.71 µM; with Plasmodium falciparum [2], 4.43 µM. The compound also gave a CC50 in series [3] of 13 µM.
Take `c1ccc2c(c1)CSc1sccc1C2=C1CCNCC1`: the EC50 stood at 0.088 µM in the series with Plasmodium falciparum [1] and 4.41 µM in the series with Plasmodium falciparum [2]. This compound also came in with a CC50 in series [3] of 13.1 µM.
The like results for `Cc1cc(Nc2cccc(Cl)c2)nc2ccc(NC(=O)c3cccnc3)cc12` were, in that order, 0.721 µM, 1.31 µM and 4.19 µM.
Turning to `CCN1C(=O)c2ccccc2Sc2ccc(NC(=O)NCCCOC(C)C)cc21`, the EC50 in the series on Plasmodium falciparum [1] and in the series on Plasmodium falciparum [2] was greater than 10 µM in each case. Moreover, the CC50 in series [3] worked out at 32.1 µM.
For the compound `CN1CCN(c2ccc(NC(=O)Oc3ccccc3)cc2)CC1`, the figures for the EC50 in the series on Plasmodium falciparum [1] and in the series on Plasmodium falciparum [2] were 4.17 µM and 7.48 µM, respectively. In series [3], this compound gave a 50% cytotoxic concentration (CC50) of 25.4 µM.
In the same order, the values of `CCC(c1nc2ccccc2c(=O)n1-c1cccc(Cl)c1)N(CCC(C)C)C(=O)COCc1ccccc1` (stereo not given) are 1.19 µM, greater than 1.14 µM and 3.91 µM.
The like results for `CCOc1cc(Br)cc(C=NNC(=O)COc2cccc(C)c2)c1O` were, in that order, 7.52 µM, greater than 12.5 µM and greater than 46.2 µM.
As to `O=S(=O)(/C=C/c1ccccc1)NCCCCNc1ccnc2cc(Cl)ccc12`, the EC50 in the series on Plasmodium falciparum [1] stood at 0.405 µM; with Plasmodium falciparum [2], 0.397 µM. This compound also registered a CC50 in series [3] of 1.48 µM.
In the same order, the values of `CC1CC(C)CC(C)C(O)C(C#N)=CC=CCC(C2CCCC2C(=O)O)OC(=O)CC(O)C(C)C1` (stereo not given) are 0.0437 µM, greater than 1.25 µM and 2.85 µM.
The like results for `Cc1ccc(O)c(C(=O)c2c[nH]c(-c3nc4ccccc4[nH]3)c2)c1` were, in that order, 2.88 µM, 2.47 µM and 5.65 µM.
Turning to `COC(=O)c1sc2nc(CN(C)Cc3nccs3)ccc2c1NC(=O)c1ccc(C)s1`, the EC50 in the series with Plasmodium falciparum [1] is greater than 1.33 µM; in the series with Plasmodium falciparum [2], 1.15 µM. For the same compound, in series [3], the CC50 was greater than 2.84 µM.
As for `COc1ccc(C(=O)N2C(C(=O)Nc3ccc(C)cc3)CSC2c2ccc(C(C)(C)C)cc2)cc1` (stereo not given), the EC50 stood at 1.04 µM in the series with Plasmodium falciparum [1] and 1.17 µM with Plasmodium falciparum [2]. Besides, in series [3], the CC50 was greater than 2.97 µM.
Consider `C[n+]1c(C=Cc2ccc(Cl)c(Cl)c2)ccc2ccccc21`, for which the EC50 in the series with Plasmodium falciparum [1] came out at 0.524 µM; in the series with Plasmodium falciparum [2], 1.76 µM. In series [3], this compound came in with a CC50 of 5.37 µM.
In the case of `COc1cc(C(=O)Nc2c3c(nn2-c2cc(C)cc(C)c2)CSC3)cc(OC)c1OC`, the EC50 in the series with Plasmodium falciparum [1] amounted to 0.907 µM; with Plasmodium falciparum [2], 0.341 µM. Also, the CC50 in series [3] was greater than 1.07 µM.
The like results for `COc1ccc(N2CCN(c3ncnc4sc(C(=O)NCc5cccnc5)c(C)c34)CC2)cc1` were, in that order, greater than 11.2 µM, greater than 8.11 µM and 20.7 µM.
The like results for `NC(=O)C1CCCN(C(=O)COC(c2ccccc2)c2cccnc2Cl)C1` (stereo not given) were, in that order, 4.81 µM, greater than 12.5 µM and 45.6 µM.
In the same order, the values of `COc1cc(-c2nc3ccc(N4CCN(C)CC4)cc3[nH]2)cc(OC)c1OC` are 0.733 µM, 5.57 µM and 21.2 µM.
On to `Nc1nnc(CCSc2ccc(Cl)cc2)s1`, for which the EC50 is 0.175 µM in the series on Plasmodium falciparum [1] and greater than 1.25 µM in the series with Plasmodium falciparum [2]. In addition, the CC50 in series [3] was greater than 3.71 µM.
Take `CCOc1ccc2c(c1)c1nnc(-c3ccc4c(c3)OCO4)c-1cn2Cc1ccc(Cl)cc1`: the EC50 in the series with Plasmodium falciparum [1] is 8.39 µM; in the series on Plasmodium falciparum [2], 4.98 µM. This compound returned a CC50 in series [3] of 14.6 µM.
On to `Cn1ccnc1C(=O)NNc1ncc(C(F)(F)F)cc1Cl`, for which the results for the EC50 in the series with Plasmodium falciparum [1] and in the series with Plasmodium falciparum [2] were 0.609 µM and 0.359 µM, respectively. In series [3], this compound displayed a 50% cytotoxic concentration (CC50) of 1.15 µM.
For `O=C1NC(=S)N/C1=C/c1ccc(C(F)(F)F)cc1`, the EC50 was greater than 1.03 µM in the series on Plasmodium falciparum [1] and greater than 1.11 µM in the series on Plasmodium falciparum [2]. Besides, the CC50 in series [3] was greater than 2.88 µM.
In the same order, the values of `CC1=C(CC(=O)c2cccc([N+](=O)[O-])c2)C(=O)c2ccccc2C1=O` are 2.84 µM, 1.72 µM and 4.69 µM.
In the same order, the values of `O=C(Nc1cccc(C(F)(F)F)c1)c1ccc(-c2cccs2)cc1` are 10 µM, 1.94 µM and 7.13 µM.
With `c1ccc(-c2ccc(-c3ccccn3)nc2)nc1`, the EC50 with Plasmodium falciparum [1] is 0.287 µM; with Plasmodium falciparum [2], 0.141 µM. This compound also yielded a CC50 in series [3] of 0.36 µM.
The like results for `Clc1cccc(CNC2CCN(CCc3ccccc3)CC2)c1` were, in that order, 0.298 µM, 0.801 µM and 3.04 µM.
On to `O=[N+]([O-])c1cc(C(F)(F)F)cc([N+](=O)[O-])c1Sc1cccc2cccnc12`, for which the results for the EC50 in the series with Plasmodium falciparum [1] and with Plasmodium falciparum [2] were 4.34 µM and 1.12 µM, respectively. Further, half-maximal cytotoxicity in series [3] (CC50) was put at 4.34 µM.
As for `CC(C)(C)C1=NN(CC(=O)Nc2ccc3c(c2)OCO3)C(=O)c2cc3ccccc3n2C1`, the EC50 in the series with Plasmodium falciparum [1] was greater than 12.5 µM; in the series with Plasmodium falciparum [2] it was 3.16 µM. In series [3], the CC50 was 9.81 µM.
